Target: T1, Deoxyhypusine hydroxylase (Plasmodium falciparum (isolate 3D7)) (UniProt Q8I701)
T1 sequence (whole entry): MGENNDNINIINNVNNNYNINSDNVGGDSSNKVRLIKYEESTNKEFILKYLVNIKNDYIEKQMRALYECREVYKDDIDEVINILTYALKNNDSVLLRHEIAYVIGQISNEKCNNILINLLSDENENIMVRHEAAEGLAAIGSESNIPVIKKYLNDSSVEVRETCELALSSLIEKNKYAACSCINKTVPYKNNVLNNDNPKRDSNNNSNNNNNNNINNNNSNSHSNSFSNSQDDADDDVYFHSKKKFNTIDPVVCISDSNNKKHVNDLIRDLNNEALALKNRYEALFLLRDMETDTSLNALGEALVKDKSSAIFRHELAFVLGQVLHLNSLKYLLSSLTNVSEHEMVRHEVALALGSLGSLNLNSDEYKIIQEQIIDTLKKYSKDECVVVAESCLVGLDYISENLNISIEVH
Assay: MMV: Deoxyhypusine hydroxylase activity assay.
Conditions: concentration not given here

c1ccc(Cn2c(N=Nc3c(Nc4ccccc4)ccc4ccccc34)nc3ccccc32)cc1
inhibition: 35.9%

CCOc1ccc(-c2nonc2NC(=O)c2cccc(C)c2)cc1OCC
inhibition: 43.3%

COc1ccc(-c2nc3cc(Cc4ccc5[nH]c(-c6ccc(OC)cc6)nc5c4)ccc3[nH]2)cc1
inhibition: 38.8%
